Laboratory results taken from patent US10787452B2 (Vertex Pharmaceuticals Incorporated, priority 2012, dated 2020).

Each molecule was assayed on HCT116 colorectal cancer cells (assay: Cisplatin sensitization assay (96 h cell viability MTS)). Conditions: 96 h MTS, compound plus Cisplatin.
Format: cell-based
How it was run: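 Test compound and cisplatin were added together as a full matrix of 2-fold serial dilutions, each from a top final concentration of 10 μM. Cells were incubated 96 h at 37° C in 5% CO2, then viability was read by MTS after a further 1 h incubation.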
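Further: compound concentration needed to lower the Cisplatin-alone IC50 by a set fold.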

SMILES	Cisplatin Sensitization Assay
Cc1ccc(-c2ccncc2NC(=O)c2c(N)nn3cc(F)cnc23)cn1 [I-C-22, 2-amino-6-fluoro-N-(6-methyl-[3,4′-bipyridin]-3′-yl)pyrazolo[1,5-a]pyrimidine-3-carboxamide]	++ (Compounds with a Cisplatin sensitization value >0.02 μM but <0.2 μM are marked with “++.”)
Cc1nncn1-c1ccncc1NC(=O)c1c(N)nn2cc(F)cnc12 [I-N-263, 2-amino-6-fluoro-N-(4-(3-methyl-4H-1,2,4-triazol-4-yl)pyridin-3-yl)pyrazolo[1,5-a]pyrimidine-3-carboxamide]	+ (Compounds with a Cisplatin sensitization value >0.2 μM but <5 μM are marked with “+.”)
Nc1nn2cc(F)cnc2c1C(=O)Nc1cnccc1-c1ccc(C(=O)N2CCN(C3COC3)CC2)cc1 [I-C-49, 2-amino-6-fluoro-N-(4-(4-(4-(oxetan-3-yl)piperazine-1-carbonyl)phenyl)pyridin-3-yl)pyrazolo[1,5-a]pyrimidine-3-carboxamide]	+++ (Compounds with a Cisplatin sensitization value of <0.02 μM are marked with “+++.”)
Nc1nn2cc(F)cnc2c1C(=O)Nc1cnccc1N1CCC(C(=O)N2CCC3(COC3)C2)CC1 [I-G-84, N-(4-(4-(2-oxa-6-azaspiro[3.4]octane-6-carbonyl)piperidin-1-yl)pyridin-3-yl)-2-amino-6-fluoropyrazolo[1,5-a]pyrimidine-3-carboxamide]	+++ (Compounds with a Cisplatin sensitization value of <0.02 μM are marked with “+++.”)
Cc1cnccc1-c1ccncc1NC(=O)c1c(N)nn2cc(F)cnc12 [I-C-29, 2-amino-6-fluoro-N-(3′-methyl-[4,4′-bipyridin]-3-yl)pyrazolo[1,5-a]pyrimidine-3-carboxamide]	+++ (Compounds with a Cisplatin sensitization value of <0.02 μM are marked with “+++.”)
CN(C)CCc1cnn(-c2ccncc2NC(=O)c2c(N)nn3cc(F)cnc23)c1 [I-N-9, 2-amino-N-(4-(4-(2-(dimethylamino)ethyl)-1H-pyrazol-1-yl)pyridin-3-yl)-6-fluoropyrazolo[1,5-a]pyrimidine-3-carboxamide]	+ (Compounds with a Cisplatin sensitization value >0.2 μM but <5 μM are marked with “+.”)
Nc1nn2cc(F)cnc2c1C(=O)Nc1cnccc1C1CCN(C(=O)C2CC2)CC1 [I-C-70, 2-amino-N-(4-(1-(cyclopropanecarbonyl)piperidin-4-yl)pyridin-3-yl)-6-fluoropyrazolo[1,5-a]pyrimidine-3-carboxamide]	+++ (Compounds with a Cisplatin sensitization value of <0.02 μM are marked with “+++.”)
Nc1nn2cc(F)cnc2c1C(=O)Nc1cnccc1C1CCN(C(=O)C23CCN(CC2)CC3)CC1 [I-C-18, 2-amino-6-fluoro-N-(4-(1-(quinuclidine-4-carbonyl)piperidin-4-yl)pyridin-3-yl)pyrazolo[1,5-a]pyrimidine-3-carboxamide]	+ (Compounds with a Cisplatin sensitization value >0.2 μM but <5 μM are marked with “+.”)
Nc1nn2cc(F)cnc2c1C(=O)Nc1cncc(F)c1N1CCC(C(=O)N2CC3CNCC3C2)CC1 (centres unmarked) [I-G-51, 2-amino-6-fluoro-N-(5-fluoro-4-(4-(octahydropyrrolo[3,4-c]pyrrole-2-carbonyl)piperidin-1-yl)pyridin-3-yl)pyrazolo[1,5-a]pyrimidine-3-carboxamide]	+++ (Compounds with a Cisplatin sensitization value of <0.02 μM are marked with “+++.”)
Nc1nn2cc(F)cnc2c1C(=O)Nc1cnccc1O[C@H]1Cc2nccn2C1 [I-O-16, (S)-2-amino-N-(4-((6,7-dihydro-5H-pyrrolo[1,2-a]imidazol-6-yl)oxy)pyridin-3-yl)-6-fluoropyrazolo[1,5-a]pyrimidine-3-carboxamide]	+++ (Compounds with a Cisplatin sensitization value of <0.02 μM are marked with “+++.”)
Nc1nn2cc(F)cnc2c1C(=O)Nc1cncc(F)c1N1CCC(C(=O)N2CC(F)C2)CC1 [I-G-74, 2-amino-6-fluoro-N-(5-fluoro-4-(4-(3-fluoroazetidine-1-carbonyl)piperidin-1-yl)pyridin-3-yl)pyrazolo[1,5-a]pyrimidine-3-carboxamide]	+++ (Compounds with a Cisplatin sensitization value of <0.02 μM are marked with “+++.”)
Nc1nn2cc(F)cnc2c1C(=O)Nc1cnccc1-c1ccc(C(=O)N2CCN(C3COC3)CC2)cc1F [I-C-51, 2-amino-6-fluoro-N-(4-(2-fluoro-4-(4-(oxetan-3-yl)piperazine-1-carbonyl)phenyl)pyridin-3-yl)pyrazolo[1,5-a]pyrimidine-3-carboxamide]	++ (Compounds with a Cisplatin sensitization value >0.02 μM but <0.2 μM are marked with “++.”)
Cc1nc(C)n(-c2ccncc2NC(=O)c2c(N)nn3cc(F)cnc23)n1 [I-N-218, 2-amino-N-(4-(3,5-dimethyl-1H-1,2,4-triazol-1-yl)pyridin-3-yl)-6-fluoropyrazolo[1,5-a]pyrimidine-3-carboxamide]	+ (Compounds with a Cisplatin sensitization value >0.2 μM but <5 μM are marked with “+.”)
Nc1nn2cc(F)cnc2c1C(=O)Nc1cnccc1N1CCN2CCC1CC2 [I-N-18, N-(4-(1,4-diazabicyclo[3.2.2]nonan-4-yl)pyridin-3-yl)-2-amino-6-fluoropyrazolo[1,5-a]pyrimidine-3-carboxamide]	++ (Compounds with a Cisplatin sensitization value >0.02 μM but <0.2 μM are marked with “++.”)
Nc1nn2cc(F)cnc2c1C(=O)Nc1cncc(F)c1N1CCN2CCOC[C@@H]2C1 [I-N-137, (S)-2-amino-6-fluoro-N-(5-fluoro-4-(hexahydropyrazino[2,1-c][1,4]oxazin-8(1H)-yl)pyridin-3-yl)pyrazolo[1,5-a]pyrimidine-3-carboxamide]	++ (Compounds with a Cisplatin sensitization value >0.02 μM but <0.2 μM are marked with “++.”)
Nc1nn2cc(F)cnc2c1C(=O)Nc1cnccc1C1CC1 [I-C-42, 2-amino-N-(4-cyclopropylpyridin-3-yl)-6-fluoropyrazolo[1,5-a]pyrimidine-3-carboxamide]	++ (Compounds with a Cisplatin sensitization value >0.02 μM but <0.2 μM are marked with “++.”)
Nc1nn2cc(F)cnc2c1C(=O)Nc1cnccc1-c1ccc(C(=O)N2CCC(N3CCC3)CC2)nc1 [I-C-54, 2-amino-N-(6-(4-(azetidin-1-yl)piperidine-1-carbonyl)-[3,4′-bipyridin]-3′-yl)-6-fluoropyrazolo[1,5-a]pyrimidine-3-carboxamide]	+++ (Compounds with a Cisplatin sensitization value of <0.02 μM are marked with “+++.”)
CN1CCN(C(=O)C2(C)CCN(c3c(F)cncc3NC(=O)c3c(N)nn4cc(F)cnc34)CC2)CC1 [I-G-54, 2-amino-6-fluoro-N-(5-fluoro-4-(4-methyl-4-(4-methylpiperazine-1-carbonyl)piperidin-1-yl)pyridin-3-yl)pyrazolo[1,5-a]pyrimidine-3-carboxamide]	+++ (Compounds with a Cisplatin sensitization value of <0.02 μM are marked with “+++.”)
Nc1nn2cc(F)cnc2c1C(=O)Nc1cncc(F)c1N1CCC(CN2CCOCC2)CC1 [I-N-149, 2-amino-6-fluoro-N-(5-fluoro-4-(4-(morpholinomethyl)piperidin-1-yl)pyridin-3-yl)pyrazolo[1,5-a]pyrimidine-3-carboxamide]	+++ (Compounds with a Cisplatin sensitization value of <0.02 μM are marked with “+++.”)
Nc1nn2cc(Cl)cnc2c1C(=O)Nc1cnccc1OC1CCOCC1 [I-O-61, 2-amino-6-chloro-N-(4-((tetrahydro-2H-pyran-4-yl)oxy)pyridin-3-yl)pyrazolo[1,5-a]pyrimidine-3-carboxamide]	+++ (Compounds with a Cisplatin sensitization value of <0.02 μM are marked with “+++.”)
CN1CC2(CCN(c3c(F)cncc3NC(=O)c3c(N)nn4cc(F)cnc34)CC2)OC1=O [I-N-229, 2-amino-6-fluoro-N-(5-fluoro-4-(3-methyl-2-oxo-1-oxa-3,8-diazaspiro[4.5]decan-8-yl)pyridin-3-yl)pyrazolo[1,5-a]pyrimidine-3-carboxamide]	+++ (Compounds with a Cisplatin sensitization value of <0.02 μM are marked with “+++.”)
Nc1nn2cc(F)cnc2c1C(=O)Nc1cnccc1-c1cccnc1Cl [I-C-37, 2-amino-N-(2-chloro-[3,4′-bipyridin]-3′-yl)-6-fluoropyrazolo[1,5-a]pyrimidine-3-carboxamide]	+++ (Compounds with a Cisplatin sensitization value of <0.02 μM are marked with “+++.”)
CN1CCN2CCN(c3ccncc3NC(=O)c3c(N)nn4cc(F)cnc34)CC2C1=O (centres unmarked) [I-N-233, 2-amino-6-fluoro-N-(4-(8-methyl-9-oxohexahydro-1H-pyrazino[1,2-a]pyrazin-2(6H)-yl)pyridin-3-yl)pyrazolo[1,5-a]pyrimidine-3-carboxamide]	++ (Compounds with a Cisplatin sensitization value >0.02 μM but <0.2 μM are marked with “++.”)
Nc1nn2cc(Cl)cnc2c1C(=O)Nc1cnccc1OC1CN2CCC1CC2 (centres unmarked) [I-O-62, 2-amino-6-chloro-N-(4-(quinuclidin-3-yloxy)pyridin-3-yl)pyrazolo[1,5-a]pyrimidine-3-carboxamide]	+++ (Compounds with a Cisplatin sensitization value of <0.02 μM are marked with “+++.”)
CN(C)C(=O)[C@H]1CC[C@@H](Oc2ccncc2NC(=O)c2c(N)nn3cc(F)cnc23)CC1 [I-O-17, 2-amino-N-(4-(((1s,4s)-4-(dimethylcarbamoyl)cyclohexyl)oxy)pyridin-3-yl)-6-fluoropyrazolo[1,5-a]pyrimidine-3-carboxamide]	+++ (Compounds with a Cisplatin sensitization value of <0.02 μM are marked with “+++.”)
N#CCc1cnc2c(C(=O)Nc3cnccc3OCC3CC3)c(N)nn2c1 [I-O-32, 2-amino-6-(cyanomethyl)-N-(4-(cyclopropylmethoxy)pyridin-3-yl)pyrazolo[1,5-a]pyrimidine-3-carboxamide]	+++ (Compounds with a Cisplatin sensitization value of <0.02 μM are marked with “+++.”)
